# Experimental data published in PubChem BioAssay AID1963963 (Molecular Pharmacology Branch, DTP, NCI, 2024).
# Tested on: 958667-338-R-J2-PDC tumor spheroids viability
# Assay: Anticancer human tumor 958667-338-R-J2-PDC patient-derived colon adenocarcinoma cell line growth inhibition [PI3K]
# Conditions: spheroids with HUVEC and MSC; for IC50: curve of first compound; for viability, T/C: stronger effect = lower value
# In short: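 Tumor cells were combined with HUVEC and MSCs into spheroids, then dosed with PI3K-inhibitor combinations over half-log ranges capped near clinical Cmax or 10 microM.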
# [1] = second compound 0.00316 µM, first compound 0.0316 µM
# [2] = second compound 0.00316 µM, first compound 0.1 µM
# [3] = second compound 0.00316 µM, first compound 0.316 µM
# [4] = second compound 0.00316 µM, first compound 1 µM
# [5] = second compound 0.00316 µM, first compound 3.16 µM
# [6] = second compound 0.00316 µM, first compound 10 µM
# [7] = second compound 0.01 µM, first compound 0.0316 µM
# [8] = second compound 0.01 µM, first compound 0.1 µM
# [9] = second compound 0.01 µM, first compound 0.316 µM
# [10] = second compound 0.01 µM, first compound 1 µM
# [11] = second compound 0.01 µM, first compound 3.16 µM
# [12] = second compound 0.01 µM, first compound 10 µM
# [13] = second compound 0.0316 µM, first compound 0.0316 µM
# [14] = second compound 0.0316 µM, first compound 0.1 µM
# [15] = second compound 0.0316 µM, first compound 0.316 µM
# [16] = second compound 0.0316 µM, first compound 1 µM
# [17] = second compound 0.0316 µM, first compound 3.16 µM
# [18] = second compound 0.0316 µM, first compound 10 µM
# [19] = second compound 0.1 µM, first compound 0.0316 µM
# [20] = second compound 0.1 µM, first compound 0.1 µM
# [21] = second compound 0.1 µM, first compound 0.316 µM
# [22] = second compound 0.1 µM, first compound 1 µM
# [23] = second compound 0.1 µM, first compound 3.16 µM
# [24] = second compound 0.1 µM, first compound 10 µM
# [25] = second compound 0.316 µM, first compound 0.0316 µM
# [26] = second compound 0.316 µM, first compound 0.1 µM
# [27] = second compound 0.316 µM, first compound 0.316 µM
# [28] = second compound 0.316 µM, first compound 1 µM
# [29] = second compound 0.316 µM, first compound 3.16 µM
# [30] = second compound 0.316 µM, first compound 10 µM
# [31] = second compound 1 µM, first compound 0.0316 µM
# [32] = second compound 1 µM, first compound 0.1 µM
# [33] = second compound 1 µM, first compound 0.316 µM
# [34] = second compound 1 µM, first compound 1 µM
# [35] = second compound 1 µM, first compound 3.16 µM
# [36] = second compound 1 µM, first compound 10 µM
# 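Note: spheroids exposed to compounds for seven days before readout.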
smiles,measurement,setting,value
CC1(C)CCC(CN2CCN(c3ccc(C(=O)NS(=O)(=O)c4ccc(NCC5CCOCC5)c([N+](=O)[O-])c4)c(Oc4cnc5[nH]ccc5c4)c3)CC2)=C(c2ccc(Cl)cc2)C1 + COc1c(OCCCN2CCOCC2)ccc2c3n(c(=NC(=O)c4cnc(N)nc4)nc12)CCN3,IC50,second compound 0.00316 µM,6.52 µM
same,IC50,second compound 0.01 µM,5.73 µM
same,IC50,second compound 0.0316 µM,5.21 µM
same,IC50,second compound 0.1 µM,3.76 µM
same,IC50,second compound 0.316 µM,< 0.0316 µM
same,IC50,second compound 1 µM,< 0.0316 µM
same,"viability, T/C",[1],76.5%
same,"viability, T/C",[2],96.3%
same,"viability, T/C",[3],80.3%
same,"viability, T/C",[4],98.8%
same,"viability, T/C",[5],103%
same,"viability, T/C",[6],25.6%
same,"viability, T/C",[7],71.8%
same,"viability, T/C",[8],85.9%
same,"viability, T/C",[9],72.5%
same,"viability, T/C",[10],76.6%
same,"viability, T/C",[11],75.8%
same,"viability, T/C",[12],25.9%
same,"viability, T/C",[13],77.6%
same,"viability, T/C",[14],66.2%
same,"viability, T/C",[15],61.6%
same,"viability, T/C",[16],69%
same,"viability, T/C",[17],80.6%
same,"viability, T/C",[18],22.6%
same,"viability, T/C",[19],58%
same,"viability, T/C",[20],53.4%
same,"viability, T/C",[21],48.8%
same,"viability, T/C",[22],53.9%
same,"viability, T/C",[23],69.6%
same,"viability, T/C",[24],11.9%
same,"viability, T/C",[25],45.8%
same,"viability, T/C",[26],42.3%
same,"viability, T/C",[27],33.9%
same,"viability, T/C",[28],33.5%
same,"viability, T/C",[29],32.5%
same,"viability, T/C",[30],4.13%
same,"viability, T/C",[31],19.7%
same,"viability, T/C",[32],15.1%
same,"viability, T/C",[33],19%
same,"viability, T/C",[34],21.9%
same,"viability, T/C",[35],18.2%
same,"viability, T/C",[36],2.25%
CCCS(=O)(=O)Nc1ccc(F)c(C(=O)c2c[nH]c3ncc(-c4ccc(Cl)cc4)cc23)c1F + COc1c(OCCCN2CCOCC2)ccc2c3n(c(=NC(=O)c4cnc(N)nc4)nc12)CCN3,IC50,second compound 0.00316 µM,5.88 µM
same,IC50,second compound 0.01 µM,6.02 µM
same,IC50,second compound 0.0316 µM,4.97 µM
same,IC50,second compound 0.1 µM,4.08 µM
same,IC50,second compound 0.316 µM,< 0.0316 µM
same,IC50,second compound 1 µM,< 0.0316 µM
same,"viability, T/C",[1],126%
same,"viability, T/C",[2],93.4%
same,"viability, T/C",[3],94.4%
same,"viability, T/C",[4],109%
same,"viability, T/C",[5],99.5%
same,"viability, T/C",[6],7.46%
same,"viability, T/C",[7],89.1%
same,"viability, T/C",[8],93.7%
same,"viability, T/C",[9],111%
same,"viability, T/C",[10],84.8%
same,"viability, T/C",[11],110%
same,"viability, T/C",[12],12.4%
same,"viability, T/C",[13],63%
same,"viability, T/C",[14],67.5%
same,"viability, T/C",[15],74.5%
same,"viability, T/C",[16],74.5%
same,"viability, T/C",[17],103%
same,"viability, T/C",[18],8.73%
same,"viability, T/C",[19],67.4%
same,"viability, T/C",[20],52.2%
same,"viability, T/C",[21],61.7%
same,"viability, T/C",[22],61.8%
same,"viability, T/C",[23],63.2%
same,"viability, T/C",[24],10.3%
same,"viability, T/C",[25],31.6%
same,"viability, T/C",[26],49.6%
same,"viability, T/C",[27],38.3%
same,"viability, T/C",[28],32.2%
same,"viability, T/C",[29],37.5%
same,"viability, T/C",[30],6.35%
same,"viability, T/C",[31],19%
same,"viability, T/C",[32],23.5%
same,"viability, T/C",[33],16.7%
same,"viability, T/C",[34],20.8%
same,"viability, T/C",[35],19.2%
same,"viability, T/C",[36],5.1%
C#Cc1c(F)ccc2cc(O)cc(-c3ncc4c(N5CC6CCC(C5)N6)nc(OCC56CCCN5CC(F)C6)nc4c3F)c12 (stereo unspecified) + Cc1nc(NC(=O)N2CCCC2C(N)=O)sc1-c1ccnc(C(C)(C)C(F)(F)F)c1,IC50,second compound 0.0316 µM,> 10 µM
same,IC50,second compound 0.1 µM,> 10 µM
same,IC50,second compound 0.316 µM,> 10 µM
same,IC50,second compound 1 µM,4.15 µM
same,IC50,second compound 3.16 µM,1.79 µM
same,IC50,second compound 10 µM,0.368 µM
same,"viability, T/C",[13],82.9%
same,"viability, T/C",[14],83.3%
same,"viability, T/C",[15],79.5%
same,"viability, T/C",[16],95.8%
same,"viability, T/C",[17],67.7%
same,"viability, T/C",[18],70.6%
same,"viability, T/C",[19],70.9%
same,"viability, T/C",[20],79.6%
same,"viability, T/C",[21],93.5%
same,"viability, T/C",[22],87.1%
same,"viability, T/C",[23],76.8%
same,"viability, T/C",[24],57.3%
same,"viability, T/C",[25],93.9%
same,"viability, T/C",[26],109%
same,"viability, T/C",[27],69%
same,"viability, T/C",[28],56.2%
same,"viability, T/C",[29],82.1%
same,"viability, T/C",[30],52.5%
same,"viability, T/C",[31],82.8%
same,"viability, T/C",[32],82.6%
same,"viability, T/C",[33],67.3%
same,"viability, T/C",[34],65.7%
same,"viability, T/C",[35],52%
same,"viability, T/C",[36],41.4%
same,"viability, T/C","second compound 3.16 µM, first compound 0.0316 µM",72.1%
same,"viability, T/C","second compound 3.16 µM, first compound 0.1 µM",59.9%
same,"viability, T/C","second compound 3.16 µM, first compound 0.316 µM",75.2%
same,"viability, T/C","second compound 3.16 µM, first compound 1 µM",50.2%
same,"viability, T/C","second compound 3.16 µM, first compound 3.16 µM",46.1%
same,"viability, T/C","second compound 3.16 µM, first compound 10 µM",29.4%
same,"viability, T/C","second compound 10 µM, first compound 0.0316 µM",60.1%
same,"viability, T/C","second compound 10 µM, first compound 0.1 µM",47.5%
same,"viability, T/C","second compound 10 µM, first compound 0.316 µM",43.9%
same,"viability, T/C","second compound 10 µM, first compound 1 µM",49.6%
same,"viability, T/C","second compound 10 µM, first compound 3.16 µM",34.1%
same,"viability, T/C","second compound 10 µM, first compound 10 µM",1.14%
